# Like-named read-outs stand apart in the source and are kept apart here.
# Test: Solvent solubility screen
# Type: physicochemical
# Details: thermodynamic from solid, read-out: Approximate Solubility
# Procedure: Between each addition, the mixture was checked for dissolution and where no dissolution was apparent, the mixture was heated to ca. 40° C. and checked again. Samples where the material dissolved, were left to evaporate. Any solids produced from evaporation samples were analyzed by XRPD in order to assess the polymorphic form.
# The solvent systems used during the solvent solubility screen, together with the corresponding ICH Class, are detailed in Table 4.
smiles,measurement,setting,value
"COC(=O)c1ccc2c(c1)NC(=O)/C2=C(\Nc1ccc(N(C)C(=O)CN2CCN(C)CC2)cc1)c1ccccc1 [Nintedanib, methyl (3Z)-3-[[4-[methyl-[2-(4-methylpiperazin-1-yl)acetyl]amino]anilino]-phenylmethylidene]-2-oxo-1H-indole-6-carboxylate]",solubility,"1-butanol, 40 °C, organic solvent or mixture",< 10000 µg/mL
same,solubility,"1-propanol, 40 °C, organic solvent or mixture",< 10000 µg/mL
same,solubility,"2-propanol, 40 °C, organic solvent or mixture",< 11000 µg/mL
same,solubility,"40 °C, aqueous with cosolvent or surfactant or cyclodextrin, 40% Methanol: 60% Water (% v/v)",< 10000 µg/mL
same,solubility,"50% 2-propanol: 50% water (% v/v), 40 °C, aqueous with cosolvent or surfactant or cyclodextrin",< 10000 µg/mL
same,solubility,"N,N′-dimethylacetamide, organic solvent or mixture",26000 µg/mL
same,solubility,"THF, 40 °C, organic solvent or mixture",< 10000 µg/mL
same,solubility,"acetone, 40 °C, organic solvent or mixture",< 10000 µg/mL
same,solubility,"acetonitrile, 40 °C, organic solvent or mixture",< 10000 µg/mL
same,solubility,"anisole, 40 °C, organic solvent or mixture",< 10000 µg/mL
same,solubility,"dichloromethane, organic solvent or mixture",17000 µg/mL
same,solubility,"dimethylsulfoxide, 40 °C, organic solvent or mixture",< 10000 µg/mL
same,solubility,"ethanol, 40 °C, organic solvent or mixture",< 10000 µg/mL
same,solubility,"ethyl acetate, 40 °C, organic solvent or mixture",< 10000 µg/mL
same,solubility,"ethyl ether, 40 °C, organic solvent or mixture",< 10000 µg/mL
same,solubility,"heptane, 40 °C, organic solvent or mixture",< 10000 µg/mL
same,solubility,"isopropyl acetate, 40 °C, organic solvent or mixture",< 10000 µg/mL
same,solubility,"methanol, 40 °C, organic solvent or mixture",< 11000 µg/mL
same,solubility,"methylethyl ketone, 40 °C, organic solvent or mixture",< 10000 µg/mL
same,solubility,"methylisobutyl ketone, 40 °C, organic solvent or mixture",< 10000 µg/mL
same,solubility,"n-hexane, 40 °C, organic solvent or mixture",< 10000 µg/mL
same,solubility,"tert-butylmethyl ether, 40 °C, organic solvent or mixture",< 11000 µg/mL
same,solubility,"toluene, 40 °C, organic solvent or mixture",< 10000 µg/mL
same,solubility,"water, 40 °C, water",< 10000 µg/mL

# Reference: patent US12090225B2 (Avalyn Pharma Inc., priority 2018, dated 2024)
